According to ChEMBL document CHEMBL5608185, “Design, synthesis and evaluation of carbamate-bridged amino acid prodrugs of cycloicaritin with improved antitumor activity, aqueous solubility and phase II metabolic stability” (Eur J Med Chem, 2024):
Values after ≈ are worked out from the molar mass of the structure shown.

Assays:
[1] = Drug uptake in human Caco-2 cells over 0.5 to 50 uM incubated for 10 mins by HPLC-MS/MS analysis; assay type: ADME, cell-based; conditions: caco-2, 10 min, dose 0.5-50 µM
[2] = Cytotoxicity against mouse 3T3 cells assessed as reduction in cell viability incubated for 72 hrs by MTT assay; assay type: toxicity, cell-based; conditions: NIH3T3 cells
[3] = Stability at phase II in rat liver microsomes assessed as half life at 10 uM measured every 10 mins for 70 mins by HPLC-UV analysis; assay type: ADME, Microsome
[4] = Drug metabolism in rat liver microsomes at 10 uM measured upto 70 mins by HPLC-UV analysis; assay type: ADME, Microsome; conditions: 1.167 h
[5] = Stability in Sprague-Dawley rat intestine homogenates assessed as half life at pH 7.4 by HPLC analysis; assay type: ADME, tissue-based
[6] = Chemical stability of the compound in simulated gastric fluid assessed as half life by HPLC analysis; assay type: ADME, physicochemical
[7] = Chemical stability of the compound in simulated intestinal fluid assessed as half life by HPLC analysis; assay type: ADME, physicochemical
[8] = Stability in rat liver microsomes assessed as parent compound remaining at 10 uM measured after 70 mins by HPLC-UV analysis; assay type: ADME, Microsome; conditions: read-out: Stability
[9] = Stability in Sprague-Dawley rat blood homogenates assessed as half life at pH 7.4 by HPLC analysis; assay type: ADME, tissue-based
[10] = Octanol/water partition coefficient, logP of the compound incubated for 72 hrs by HPLC-MS/MS analysis; assay type: physicochemical
[11] = Chemical stability of the compound assessed as half life at pH 4.5 by HPLC analysis; assay type: physicochemical; conditions: buffer
[12] = test system: HepG2; assay: Cytotoxicity against human HepG2 cells assessed as reduction in cell viability incubated for 72 hrs by MTT assay; assay type: functional, cell-based
[13] = Aqueous solubility of the compound incubated for 72 hrs by shake-flask method; assay type: physicochemical; conditions: buffer
[14] = Drug uptake in human Caco-2 cells at 5 uM at pH 6.0 incubated for 10 mins by HPLC-MS/MS analysis; assay type: ADME, cell-based; conditions: caco-2, pH 6, 10 min
[15] = Drug uptake in human Caco-2 cells at 5 uM incubated for 10 mins in presence of glycyl-sarcosine by HPLC-MS/MS analysis; assay type: ADME, cell-based; conditions: caco-2, 10 min
[16] = Drug uptake in human Caco-2 cells at 5 uM incubated for 10 mins in presence of fexofenadine by HPLC-MS/MS analysis; assay type: ADME, cell-based; conditions: caco-2, 10 min
[17] = test system: 4T1; assay: Cytotoxicity against mouse 4T1 cells assessed as reduction in cell viability incubated for 72 hrs by MTT assay; assay type: functional, cell-based
[18] = Drug uptake in human Caco-2 cells at 5 uM at pH 7.4 incubated for 10 mins by HPLC-MS/MS analysis; assay type: ADME, cell-based; conditions: caco-2, pH 7.4, 10 min
[19] = Selectivity ratio of cytotoxicity against human HepG2 cells to cytotoxicity against mouse 4T1 cells
[20] = Chemical stability of the compound assessed as half life at pH 6.8 by HPLC analysis; assay type: physicochemical; conditions: buffer
[21] = Chemical stability of the compound assessed as half life at pH 1.2 by HPLC analysis; assay type: physicochemical; conditions: buffer
[22] = Stability in Sprague-Dawley rat liver homogenates assessed as half life at pH 7.4 by HPLC analysis; assay type: ADME, tissue-based
[23] = Chemical stability of the compound assessed as half life at pH 7.4 by HPLC analysis; assay type: physicochemical; conditions: buffer
[24] = Drug uptake in human Caco-2 cells at 5 uM incubated for 10 mins in presence of Estrone-3-sulfate by HPLC-MS/MS analysis; assay type: ADME, cell-based; conditions: caco-2, 10 min
[25] = Toxicity in BALB/c mouse assessed as effect on BUN level at 35 to 150 mg/kg, po measured after 16 days; assay type: organism-based; conditions: in vivo, 384 h, dose 35-150 mg/kg, time 16 day
[26] = AUC (0 to t) in male Sprague-Dawley rat at 20 mg/kg, po measured up to 12 hrs in presence of glycyl-sarcosine by HPLC-MS/MS analysis; assay type: ADME, organism-based; conditions: in vivo, with glycyl-sarcosine (dose not stated)
[27] = Cmax in male Sprague-Dawley rat at 20 mg/kg, po measured up to 12 hrs in presence of fexofenadine by HPLC-MS/MS analysis; assay type: ADME, organism-based; conditions: in vivo, with fexofenadine (dose not stated)
[28] = Prodrug conversion in Sprague-Dawley rat assessed as AUC (0 to t) of cycloicaritin metabolite at 20 mg/kg, po measured up to 12 hrs by HPLC-MS/MS analysis; assay type: ADME, organism-based; conditions: in vivo
[29] = Cmax in Sprague-Dawley rat at 20 mg/kg, po measured upto 12 hrs by HPLC-MS/MS analysis; assay type: ADME, organism-based; conditions: in vivo
[30] = Toxicity in BALB/c mouse assessed as effect on AST level at 35 to 150 mg/kg, po measured after 16 days; assay type: organism-based; conditions: in vivo, 384 h, dose 35-150 mg/kg, time 16 day
[31] = Prodrug conversion in Sprague-Dawley rat assessed as half life of cycloicaritin metabolite at 20 mg/kg, po measured up to 12 hrs by HPLC-MS/MS analysis; assay type: ADME, organism-based; conditions: in vivo
[32] = Toxicity in BALB/c mouse assessed as effect on ALT level at 35 to 150 mg/kg, po measured after 16 days; assay type: organism-based; conditions: in vivo, 384 h, dose 35-150 mg/kg, time 16 day
[33] = Half life in Sprague-Dawley rat at 20 mg/kg, po measured upto 12 hrs by HPLC-MS/MS analysis; assay type: ADME, organism-based; conditions: in vivo
[34] = Prodrug conversion in Sprague-Dawley rat assessed as Cmax of cycloicaritin metabolite at 20 mg/kg, po measured up to 12 hrs by HPLC-MS/MS analysis; assay type: ADME, organism-based; conditions: in vivo
[35] = AUC (0 to t) in Sprague-Dawley rat at 20 mg/kg, po measured upto 12 hrs by HPLC-MS/MS analysis; assay type: ADME, organism-based; conditions: in vivo
[36] = Prodrug conversion in Sprague-Dawley rat assessed as Tmax of cycloicaritin metabolite at 20 mg/kg, po measured up to 12 hrs by HPLC-MS/MS analysis; assay type: ADME, organism-based; conditions: in vivo
[37] = Toxicity in BALB/c mouse assessed as effect on body weight at 35 to 150 mg/kg, po measured after 16 days; assay type: organism-based; conditions: in vivo, 384 h, dose 35-150 mg/kg, time 16 day
[38] = Cmax in male Sprague-Dawley rat at 20 mg/kg, po measured up to 12 hrs in presence of glycyl-sarcosine by HPLC-MS/MS analysis; assay type: ADME, organism-based; conditions: in vivo, with glycyl-sarcosine (dose not stated)
[39] = Tmax in Sprague-Dawley rat at 20 mg/kg, po measured upto 12 hrs by HPLC-MS/MS analysis; assay type: ADME, organism-based; conditions: in vivo
[40] = Drug uptake in human Caco-2 cells over 1 to 100 uM incubated for 10 mins by HPLC-MS/MS analysis; assay type: ADME, cell-based; conditions: caco-2, 10 min, dose 1-100 µM
[41] = AUC (0 to t) in male Sprague-Dawley rat at 20 mg/kg, po measured up to 12 hrs in presence of fexofenadine by HPLC-MS/MS analysis; assay type: ADME, organism-based; conditions: in vivo, with fexofenadine (dose not stated)
[42] = Toxicity in BALB/c mouse assessed as effect on CREA level at 35 to 150 mg/kg, po measured after 16 days; assay type: organism-based; conditions: in vivo, 384 h, dose 35-150 mg/kg, time 16 day
[43] = test system: 4T1; assay: Antitumor activity against mouse 4T1 cells xenografted in BALB/c mouse model assessed as reduction in tumor growth administered once daily via oral gavage and measured every two days for 16 days; assay type: functional, cell-based; conditions: dose 35-150 mg/kg, time 16.0 day
[44] = Oral bioavailability in rat; assay type: ADME, organism-based; conditions: in vivo

COc1ccc(-c2oc3c4c(cc(O)c3c(=O)c2O)OC(C)(C)CC4)cc1
Drug uptake [1]: Active
IC50 at 72 h [2]: > 50 µM
half-life at 10 µM [3]: 0.62 h
Drug metabolism [4]: Metabolite_Detected
half-life [5]: > 12 h
half-life [6]: > 12 h
half-life [7]: > 12 h
remaining at 1.167 h, 10 µM [8]: 27%
half-life [9]: > 12 h
logP at 72 h [10]: 3.8
half-life [11]: > 12 h
Activity [12]: Dose-Dependent Effect
solubility thermodynamic at 72 h [13]: 0.81 µM (≈ 0.298 µg/mL)
Drug uptake [14]: Active
Drug uptake [15]: Active
Drug uptake [16]: Active
Activity [17]: Dose-Dependent Effect
Drug uptake [18]: Active
Selectivity ratio [19]: 1.8
half-life [20]: > 12 h
half-life [21]: > 12 h
half-life [22]: > 12 h
half-life [23]: > 12 h
Drug uptake [24]: Active

COc1ccc(-c2oc3c4c(cc(O)c3c(=O)c2OC(=O)N[C@@H](CC(C)C)C(=O)O)OC(C)(C)CC4)cc1
IC50 at 72 h [2]: > 100 µM
Activity [25]: Non-Toxic
half-life at 10 µM [3]: > 1.16 h
half-life [5]: 8.67 h
half-life [6]: > 12 h
AUC(0-t) at 12 h [26]: 0.812 µM·h
Cmax [27]: 47.4 nM
half-life [7]: > 12 h
remaining at 1.167 h, 10 µM [8]: 76%
AUCt [28]: 0.1587 µM·h
half-life [9]: 0.5 h
logP at 72 h [10]: 3.42
half-life [11]: > 12 h
Cmax [29]: 156 nM
Activity [12]: Dose-Dependent Effect
Activity [30]: Non-Toxic
solubility thermodynamic at 72 h [13]: 13 µM (≈ 6.84 µg/mL)
t1/2 [31]: 6.96 h
Drug uptake [14]: Active
Activity [32]: Non-Toxic
half-life [33]: 5.34 h
Drug uptake [15]: Active
Cmax [34]: 66.6 nM
Drug uptake [16]: Not Active
AUC(0-t) at 12 h [35]: 0.463 µM·h
Activity [17]: Dose-Dependent Effect
Drug uptake [18]: Not Active
half-life [20]: > 12 h
Tmax [36]: 0.9 h
Activity [37]: Non-Toxic
Cmax [38]: 204 nM
half-life [21]: > 12 h
Tmax [39]: 1 h
Drug uptake [40]: Not Active
half-life [22]: 8.6 h
half-life [23]: > 12 h
AUC(0-t) at 12 h [41]: 0.303 µM·h
Drug uptake [24]: Not Active
Activity [42]: Non-Toxic
Activity [43]: Dose-Dependent Effect

COc1ccc(-c2oc3c4c(cc(O)c3c(=O)c2OC(=O)N[C@H](C(=O)O)C(C)C)OC(C)(C)CC4)cc1
half-life at 10 µM [3]: > 1.16 h
half-life [5]: 7.22 h
half-life [6]: > 12 h
half-life [7]: > 12 h
remaining at 1.167 h, 10 µM [8]: 76%
half-life [9]: 0.47 h
logP at 72 h [10]: 2.75
half-life [11]: > 12 h
solubility thermodynamic at 72 h [13]: 5.69 µM (≈ 2.91 µg/mL)
Drug uptake [16]: Not Active
Drug uptake [18]: Not Active
half-life [20]: > 12 h
half-life [21]: > 12 h
Drug uptake [40]: Not Active
half-life [22]: 7.99 h
half-life [23]: 8.17 h
Drug uptake [24]: Not Active

COc1ccc(-c2oc3c4c(cc(O)c3c(=O)c2OC(=O)NCC(=O)O)OC(C)(C)CC4)cc1
half-life at 10 µM [3]: > 1.16 h
half-life [5]: 1.89 h
half-life [6]: > 12 h
half-life [7]: 5.24 h
remaining at 1.167 h, 10 µM [8]: 76%
half-life [9]: 0.25 h
logP at 72 h [10]: 3.66
half-life [11]: > 12 h
solubility thermodynamic at 72 h [13]: 3.64 µM (≈ 1.71 µg/mL)
half-life [20]: 5.21 h
half-life [21]: > 12 h
Drug uptake [40]: Not Active
half-life [22]: 1.96 h
half-life [23]: 1.96 h

CC[C@H](C)[C@H](NC(=O)Oc1c(-c2ccc(OC)cc2)oc2c3c(cc(O)c2c1=O)OC(C)(C)CC3)C(=O)O
half-life at 10 µM [3]: > 1.16 h
half-life [5]: 4.71 h
half-life [6]: > 12 h
half-life [7]: > 12 h
remaining at 1.167 h, 10 µM [8]: 76%
half-life [9]: 0.36 h
logP at 72 h [10]: 2.69
half-life [11]: > 12 h
solubility thermodynamic at 72 h [13]: 11.4 µM (≈ 6.01 µg/mL)
Drug uptake [16]: Not Active
Drug uptake [18]: Not Active
half-life [20]: > 12 h
half-life [21]: > 12 h
Drug uptake [40]: Not Active
half-life [22]: 4.62 h
half-life [23]: 4.97 h
Drug uptake [24]: Not Active

COc1ccc(-c2oc3c4c(cc(O)c3c(=O)c2OC(=O)N[C@@H](Cc2ccccc2)C(=O)O)OC(C)(C)CC4)cc1
half-life at 10 µM [3]: > 1.16 h
half-life [5]: 5.85 h
half-life [6]: > 12 h
half-life [7]: > 12 h
remaining at 1.167 h, 10 µM [8]: 76%
half-life [9]: 0.45 h
logP at 72 h [10]: 4.33
half-life [11]: > 12 h
solubility thermodynamic at 72 h [13]: 2.68 µM (≈ 1.5 µg/mL)
half-life [20]: > 12 h
half-life [21]: > 12 h
Drug uptake [40]: Not Active
half-life [22]: 6.04 h
half-life [23]: 6.09 h

COc1ccc(-c2oc3c4c(cc(O)c3c(=O)c2OC(=O)N[C@@H](CCC(=O)O)C(=O)O)OC(C)(C)CC4)cc1
solubility thermodynamic at 72 h [13]: 1.1 µM (≈ 0.596 µg/mL)

COc1ccc(-c2oc3c(CC=C(C)C)c(O)cc(O)c3c(=O)c2O)cc1 [ICARITIN]
bioavailability [44]: 4.3%
